Assay results as given in publication PMC12083017, “Enhanced oral bioavailability of two Cistanche polysaccharides in acteoside: an in-depth analysis of intestinal flora, short-chain fatty acids, and pharmacokinetic regulation” (Frontiers in Nutrition, 2025).
Where two headings read alike, the source gives them in different places. Each block holds one compound with its values, some of them ahead of it.

Experiments:
[1] = type: physicochemical; settings: rat; for Short-term stability (RSD,%): 4 h; for Post-preparation stability (RSD,%): 24 h; for Long-term stability (RSD,%): 15 days
Experimental: A 4°C freezer was then used to make and store the stock solution (1 mg/mL). Moreover, 50% methanol was used to dilute 1 μg/mL of the IS working solution. […] Before being analyzed, the entire set of QC samples were kept at −80°C. An examination of stability using QC samples at low, medium, and high doses. Short-term stability was measured by injecting samples after staying 4 h at room temperature (25°C). After preparation, the sample was kept at 4°C for 24 h, and the dosage was injected to ascertain the sample’s stability. To determine long-term stability, samples were frozen at −80°C for 15 days before being injected. By thawing the samples three times in a row at room temperature and a freezer at −20°C, the freeze–thaw stability was ascertained.

[2] = Pharmacokinetics of acteoside and its metabolites in rat plasma after oral acteoside (UPLC-QqQ-MS); type: in vivo, male Sprague–Dawley rats; settings: for AUC(0-inf) / AUC(0-t) / Tmax / half-life / Cmax / MRT last / MRT inf: male, Sprague-Dawley, rat, plasma, po, 100 mg/kg; for MRT last: read-out: MRT(0-t); for MRT inf: read-out: MRT(0-∞); for Cmax of metabolite, WCP group relative to UCP group: following oral acteoside 100 mg/kg
From the text: After a week of acclimatization, rats were split into three groups at random: the wine-processed Cistanche polysaccharide group (WCP group), the unprocessed Cistanche polysaccharide group (UCP group), and the blank control group (Control group). Six rats each group were raised in the same cage for breeding. Prior to the experiment, provide water and regular laboratory meals to the rats at will and fast for one night before the experiment. In order to ensure the continuous intake of Cistanche polysaccharides, it was calculated according to the requirements of the Chinese Pharmacopoeia ([16]) based on the daily dosage of Cistanche for adults, the polysaccharide yield of Cistanche polysaccharides and the equivalent conversion formula of the drug administration between humans and rats ([17]). An appropriate amount of raw Cistanche polysaccharide and Cistanche wine polysaccharide were weighed, dissolved in pure water, and prepared with 15.06 g·kg^-1 administration solution for continuous administration for 21 days. After fasting overnight, on day 22, two fresh fecal samples were collected from each rat, put straight into a sterile tube from the anus, avoiding contact with skin or urine, and stored in a -80°C freezer immediately after freezing with liquid nitrogen for subsequent analysis. For the pharmacokinetics, in a 1.5 mL heparinized centrifuge tube, 0.3 mL of continuous blood collected from the orbital vein was taken from 0 min, 5 min, 10 min, 30 min, 1.0 […], and 36 h following oral administration of acteoside (100 mg/kg) in the three groups. Using a cryo-centrifuge, plasma samples were produced by centrifuging at 800 g for ten minutes at 4°C. After that, plasma samples were gathered and kept for later examination at -80°C. […] Following this,20 μL of genistein (1 μg/mL IS) solution and 600 μL of cold acetonitrile were then included and centrifuged for 5 min, the […] proteins were separated by vortexing for 5 min, and then they were spun down for 15 min at 4°C at 14,000 rpm. The supernatant was gathered and dried at 40°C with a light nitrogen stream. The dried remnant was then immersed in 100 μL of 25% aqueous acetonitrile fluid, and centrifugation was performed again for 10 min at 4°C at 14,000 rpm. Ultimately, the LC-MS/MS system was injected with 2 μL of the liquid for analysis. A 1.7 μm and 2.1 × 100 mm I.D. […] With a column temperature of 30°C, the flow rate was fixed at 0.3 mL/min. In the mass spectrometry analysis, negative ionization mode was performed with the following optimized parameters: capillary voltage, 3.0 kV; desolvation temperature, 400°C. […] Thus, multiple reaction monitoring (MRM) of the acteoside transitions at 623.37 → 161.02 m/z, caffeic acid transitions at 179.01 → 135.03 m/z, hydroxytyrosol transitions at 153.03 → 122.95 m/z, genistein transitions at 269.08 → 132.57 m/z was used for quantification. […] Data were processed using Masslynx workstation data acquisition and qualitative analysis software (4.1, Waters, USA). Using the DAS program (Chinese Pharmacological Society, Beijing, China), pharmacokinetic parameters were estimated.

[3] = metabolite in rat plasma following oral acteoside 100 mg/kg, Control group, n = 6
[4] = metabolite in rat plasma following oral acteoside 100 mg/kg, Control group, n = 6, read-out: Cmax
[5] = metabolite in rat plasma following oral acteoside 100 mg/kg, UCP group, n = 6
[6] = metabolite in rat plasma following oral acteoside 100 mg/kg, UCP group, n = 6, read-out: Cmax
[7] = metabolite in rat plasma following oral acteoside 100 mg/kg, WCP group, n = 6
[8] = metabolite in rat plasma following oral acteoside 100 mg/kg, WCP group, n = 6, read-out: Cmax
[9] = acteoside in rat plasma, oral acteoside 100 mg/kg, Control group, n = 6
[10] = acteoside in rat plasma, oral acteoside 100 mg/kg, UCP group, n = 6
[11] = acteoside in rat plasma, oral acteoside 100 mg/kg, WCP group, n = 6

Freeze–thaw stability (RSD,%) ([1]; 25 ng/mL): 7.04% | Freeze–thaw stability (RSD,%) ([1]; 200 ng/mL): 5.78% | Freeze–thaw stability (RSD,%) ([1]; 1000 ng/mL): 4.24% | Short-term stability (RSD,%) ([1]; 25 ng/mL): 5.34% | Short-term stability (RSD,%) ([1]; 200 ng/mL): 3.26% | Short-term stability (RSD,%) ([1]; 1000 ng/mL): 2.44% | Post-preparation stability (RSD,%) ([1]; 25 ng/mL): 6.32% | Post-preparation stability (RSD,%) ([1]; 200 ng/mL): 4.89% | Post-preparation stability (RSD,%) ([1]; 1000 ng/mL): 3.21% | Long-term stability (RSD,%) ([1]; 25 ng/mL): 7.78% | Long-term stability (RSD,%) ([1]; 200 ng/mL): 5.86% | Long-term stability (RSD,%) ([1]; 1000 ng/mL): 4.63% | AUC(0-inf) [2, 3]: 42.5 ± 4.24 ng·h/mL | AUC(0-t) [2, 3]: 40.6 ± 3.24 ng·h/mL | Tmax [2, 3]: 0.25 h | half-life [2, 3]: 0.813 ± 0.129 h | Cmax [2, 4]: 30.3 ± 10.9 ng/mL | MRT last [2, 3]: 1.2 ± 0.132 h | MRT inf [2, 3]: 1.38 ± 0.145 h | AUC(0-inf) [2, 5]: 60.5 ± 5.72 ng·h/mL | AUC(0-t) [2, 5]: 56.5 ± 5.41 ng·h/mL | Tmax [2, 5]: 0.25 h | half-life [2, 5]: 0.908 ± 0.106 h | Cmax [2, 6]: 44.4 ± 14 ng/mL | MRT last [2, 5]: 1.19 ± 0.124 h | MRT inf [2, 5]: 1.46 ± 0.153 h | AUC(0-inf) [2, 7]: 91.3 ± 6.92 ng·h/mL | AUC(0-t) [2, 7]: 90.6 ± 6.73 ng·h/mL | Tmax [2, 7]: 0.25 h | half-life [2, 7]: 0.537 ± 0.116 h | Cmax [2, 8]: 71.4 ± 32 ng/mL | MRT last [2, 7]: 1.27 ± 0.139 h | MRT inf [2, 7]: 1.54 ± 0.168 h | Cmax of metabolite, WCP group relative to UCP group ([2]; rats): 1.61 times
Structure (SMILES): OCCc1ccc(O)c(O)c1 [Hydroxytyrosol, hydroxytyrosol]

Freeze–thaw stability (RSD,%) ([1]; 25 ng/mL): 7.93% | Freeze–thaw stability (RSD,%) ([1]; 200 ng/mL): 4.56% | Freeze–thaw stability (RSD,%) ([1]; 1000 ng/mL): 4.45% | Short-term stability (RSD,%) ([1]; 25 ng/mL): 6.91% | Short-term stability (RSD,%) ([1]; 200 ng/mL): 3.15% | Short-term stability (RSD,%) ([1]; 1000 ng/mL): 2.79% | Post-preparation stability (RSD,%) ([1]; 25 ng/mL): 7.03% | Post-preparation stability (RSD,%) ([1]; 200 ng/mL): 3.46% | Post-preparation stability (RSD,%) ([1]; 1000 ng/mL): 3.68% | Long-term stability (RSD,%) ([1]; 25 ng/mL): 8.28% | Long-term stability (RSD,%) ([1]; 200 ng/mL): 6.67% | Long-term stability (RSD,%) ([1]; 1000 ng/mL): 4.99% | AUC(0-inf) [2, 9]: 4360 ± 130 ng·h/mL | AUC(0-t) [2, 9]: 4200 ± 153 ng·h/mL | Tmax [2, 9]: 0.5 h | half-life [2, 9]: 2.06 ± 1.3 h | Cmax ([2]; acteoside in rat plasma, oral acteoside 100 mg/kg, Control group, n = 6, read-out: Cmax): 863 ± 63.4 ng/mL | MRT last [2, 9]: 3.94 ± 0.165 h | MRT inf [2, 9]: 4.34 ± 0.512 h | AUC(0-t) ([2]; acteoside in rat plasma, oral acteoside 100 mg/kg, UCP group (21 days UCP before), n = 6): 4980 ± 231 ng·h/mL | AUC(0-inf) [2, 10]: 5050 ± 267 ng·h/mL | Tmax [2, 10]: 0.75 h | Cmax ([2]; acteoside in rat plasma, oral acteoside 100 mg/kg, UCP group, n = 6, read-out: Cmax): 1030 ± 98.3 ng/mL | MRT last [2, 10]: 4.94 ± 0.165 h | MRT inf [2, 10]: 5.29 ± 0.629 h | AUC(0-t) ([2]; acteoside in rat plasma, oral acteoside 100 mg/kg, WCP group (21 days WCP before), n = 6): 6660 ± 543 ng·h/mL | AUC(0-inf) [2, 11]: 6690 ± 633 ng·h/mL | Tmax [2, 11]: 0.75 h | Cmax ([2]; acteoside in rat plasma, oral acteoside 100 mg/kg, WCP group, n = 6, read-out: Cmax): 1590 ± 103 ng/mL | MRT last [2, 11]: 4.996 ± 0.032 h | MRT inf [2, 11]: 5.6 ± 0.837 h | Cmax ([2]; rat plasma, oral acteoside 100 mg/kg, Control group, read-out: mean Cmax of acteoside): 863 ng/mL | Cmax ([2]; rat plasma, oral acteoside 100 mg/kg, UCP group, read-out: mean Cmax of acteoside): 1030 ng/mL | Cmax ([2]; rat plasma, oral acteoside 100 mg/kg, WCP group, read-out: mean Cmax of acteoside): 1590 ng/mL | AUC(0-∞) of acteoside, increase after UCP relative to control ([2]; rats, oral acteoside 100 mg/kg): 1.16 times | AUC(0-∞) of acteoside, increase after WCP relative to control ([2]; rats, oral acteoside 100 mg/kg): 1.54 times | Cmax of acteoside, UCP group relative to control group ([2]; rats, oral acteoside 100 mg/kg): 1.19 times | Cmax of acteoside, WCP group relative to control group ([2]; rats, oral acteoside 100 mg/kg): 1.84 times | t1/2 of acteoside, WCP group relative to UCP group ([2]; rats, oral acteoside 100 mg/kg): 1.18 times
Structure (SMILES): C[C@@H]1O[C@@H](O[C@@H]2[C@@H](O)[C@H](OCCc3ccc(O)c(O)c3)O[C@H](CO)[C@H]2OC(=O)/C=C/c2ccc(O)c(O)c2)[C@H](O)[C@H](O)[C@H]1O [Acteoside, acteoside]

Freeze–thaw stability (RSD,%) ([1]; 25 ng/mL): 9.14% | Freeze–thaw stability (RSD,%) ([1]; 200 ng/mL): 8.23% | Freeze–thaw stability (RSD,%) ([1]; 1000 ng/mL): 7.08% | Short-term stability (RSD,%) ([1]; 25 ng/mL): 7.78% | Short-term stability (RSD,%) ([1]; 200 ng/mL): 7.34% | Short-term stability (RSD,%) ([1]; 1000 ng/mL): 4.91% | Post-preparation stability (RSD,%) ([1]; 25 ng/mL): 8.33% | Post-preparation stability (RSD,%) ([1]; 200 ng/mL): 7.87% | Post-preparation stability (RSD,%) ([1]; 1000 ng/mL): 6.87% | Long-term stability (RSD,%) ([1]; 25 ng/mL): 9.75% | Long-term stability (RSD,%) ([1]; 200 ng/mL): 8.56% | Long-term stability (RSD,%) ([1]; 1000 ng/mL): 8.43% | AUC(0-inf) [2, 3]: 110 ± 15.4 ng·h/mL | AUC(0-t) [2, 3]: 76.1 ± 13.3 ng·h/mL | Tmax [2, 3]: 0.75 h | half-life [2, 3]: 2.17 ± 0.693 h | Cmax [2, 4]: 30.4 ± 14.2 ng/mL | MRT last [2, 3]: 1.56 ± 0.172 h | MRT inf [2, 3]: 2.51 ± 0.273 h | AUC(0-inf) [2, 5]: 117 ± 13.3 ng·h/mL | AUC(0-t) [2, 5]: 100 ± 17.7 ng·h/mL | Tmax [2, 5]: 0.75 h | Cmax [2, 6]: 44.1 ± 15.8 ng/mL | MRT last [2, 5]: 1.54 ± 0.166 h | MRT inf [2, 5]: 2.18 ± 0.267 h | AUC(0-inf) [2, 7]: 144 ± 26.7 ng·h/mL | AUC(0-t) [2, 7]: 125 ± 25.9 ng·h/mL | Tmax [2, 7]: 0.75 h | half-life [2, 7]: 1.29 ± 0.914 h | Cmax [2, 8]: 55.5 ± 16.9 ng/mL | MRT last [2, 7]: 1.52 ± 0.161 h | MRT inf [2, 7]: 2.1 ± 0.256 h | Cmax of metabolite, WCP group relative to UCP group ([2]; rats): 1.26 times
Structure (SMILES): O=C(O)/C=C/c1ccc(O)c(O)c1 [Caffeic acid, caffeic acid]
